According to article PMC8480776, “Selenium Derivatives as Promising Therapy for Chagas Disease: In Vitro and In Vivo Studies” (ACS Infectious Diseases, 2021):
Like-named read-outs stand apart in the source and are kept apart here.

Assays:
[1] = tested on: T. cruzi epimastigotes, SN3 strain; test: Screening against extracellular epimastigotes, SN3 strain; format: cell-based, Trypanosoma cruzi
[2] = tested on: T. cruzi amastigotes, SN3 strain; test: Screening against intracellular amastigotes, SN3 strain; format: cell-based, Trypanosoma cruzi
T. cruzi Arequipa strain = test: In vivo trypanocidal activity on BALB/c mice (acute and chronic Chagas disease); parameters: species or system Trypanosoma cruzi
Method: (§1) Female BALB/c mice aged 10–12 weeks and with a size of 20–24 g were divided into five groups (n = 3 per group): 0, negative control group (uninfected and untreated mice); I, positive control group (infected and untreated mice); II, BZN group (infected mice treated with BZN); III, 26 group (infected mice treated with 26); and IV, 28 group (infected mice treated with 28).
Mice were infected by intraperitoneal injection of 5 × 10^5 BTs of T. cruzi Arequipa strain per mouse in 200 μL PBS.[42] Subsequently, the treatment was intraperitoneally administered (∼200 μL) once daily for 5 consecutive days.
(§2) The tested selenocompounds and BZN were prepared at 2 mg·mL^–1 in an aqueous suspension vehicle containing 5% (v/v) DMSO and 0.5% (w/v) hydroxypropyl methylcellulose, as previously reported.[52] Compounds (20 mg·kg^–1 per day) were administered for 5 consecutive days (total dosages of 100 mg·kg^–1), and vehicle only was administered in the negative and positive control groups. Treatments began when the infection was confirmed (9 dpi) for acute-phase-treated mice, and when it was established that the animals moved into the chronic phase (100 dpi, for chronic-phase-treated mice; Scheme 1).
[…]. Parasitemia was expressed as parasites·mL^–1.
Immunosuppression was performed by intraperitoneal injection of three doses of 200 mg·kg^–1 of ISOPAC CP at 3–4 day intervals (Scheme 1), as previously reported.[53] Mice were closely monitored for side effects or for secondary infections due to immunosuppression. Within 7 days after the last CP injection, parasitemia reactivation was determined by counting BTs according the procedure described for parasitemia in the acute phase.[42]
On 145 dpi, the mice were euthanized using CO2, followed by exsanguination via cardiac puncture, and blood was collected. […]. In addition, spleens were weighed to assess splenomegaly.[42]
DNA extraction of the post-mortem organs/tissues was performed using Wizard Genomic DNA Purification Kit,[41] and the extracted DNA was subjected to amplification by PCR based on the spliced leader (SL) intergenic region sequence of T. cruzi (for detailed description, see literature reported previously).[55] Finally, the PCR products were resolved by electrophoresis on a 2% agarose gel (containing GelRed nucleic gel stain) for 90 min at 90 V.
Circulating antibodies in serum against both antigens were quantitatively evaluated in triplicate by the ELISA test in 96-well plates using diluted serum samples (1:80 in PBS), as previously described.[41]

[3] = tested on: T. cruzi amastigotes, Tulahuen strain; test: Screening against intracellular amastigotes, Tulahuen strain; format: cell-based, Trypanosoma cruzi
[4] = tested on: epimastigotes of T. cruzi Arequipa strain; test: Flow cytometry analysis of nucleic acid levels (acridine orange); format: cell-based, Trypanosoma cruzi; conditions: IC25 concentrations, 72 h
[5] = tested on: T. cruzi epimastigotes, Arequipa strain; test: Screening against extracellular epimastigotes, Arequipa strain; format: cell-based, Trypanosoma cruzi
[6] = target: T1, human erythrocytes CuZn-SOD (Homo sapiens, UniProt P00441); test: SOD enzymatic inhibition, CuZn-SOD; format: biochemical
T1 construct: commercial copper/zinc superoxide dismutase (Cu/Zn-SOD) from human erythrocytes (Sigma-Aldrich); purchased Sigma-Aldrich; host or cells: human erythrocytes (natural source)

Trypanosoma cruzi Fe-SOD = test: SOD enzymatic inhibition, Fe-SOD; format: biochemical
[7] = tested on: T. cruzi trypomastigotes, Tulahuen strain; test: Screening against bloodstream trypomastigotes, Tulahuen strain; format: cell-based, Trypanosoma cruzi
[8] = tested on: T. cruzi amastigotes, Arequipa strain; test: Screening against intracellular amastigotes, Arequipa strain; format: cell-based, Trypanosoma cruzi
[9] = tested on: T. cruzi trypomastigotes, Arequipa strain; test: Screening against bloodstream trypomastigotes, Arequipa strain; format: cell-based, Trypanosoma cruzi
Vero cells = test: Cytotoxicity test on Vero cells; format: cell-based; conditions: Chlorocebus sabaeus, 48 h + 24 h resazurin, read-out: Toxicity IC50 Vero cell
[10] = tested on: T. cruzi trypomastigotes, SN3 strain; test: Screening against bloodstream trypomastigotes, SN3 strain; format: cell-based, Trypanosoma cruzi
[11] = tested on: Vero cells infected with T. cruzi Arequipa strain; test: Infection rate in Vero cells (infected cells), Arequipa strain; format: cell-based; conditions: Trypanosoma cruzi, 72 h of treatment
[12] = format: in vivo, BALB/c mice; conditions: variation vs control
Method: as §1, §2
Serum samples obtained from blood in several days post-infection (Scheme 1) were sent to the Biochemical Service (University of Granada) to measure a series of biochemical parameters with the commercial Cromakit using a clinical chemistry analyzer (BS-200, Shenzhen Mindray Biomedical Electronics Co., LTD), as previously described.[41]

[13] = tested on: T. cruzi epimastigotes, Tulahuen strain; test: Screening against extracellular epimastigotes, Tulahuen strain; format: cell-based, Trypanosoma cruzi
[14] = IC50 Vero cells/IC50 epimastigotes
[15] = IC50 Vero cells/IC50 amastigotes
[16] = 20 mg·kg–1 per day i.p. 5 days from 9 dpi
[17] = 20 mg·kg–1 per day i.p. 5 days from 100 dpi
[18] = 20 mg·kg–1 per day i.p. for 5 days from 9 dpi
[19] = IC50 Vero cells/IC50 trypomastigotes
[20] = treatment in acute phase, 15th dpi (2 days after treatment)
[21] = treatment in acute phase, necropsy day
[22] = treatment in chronic phase, 106th dpi (2 days after treatment)
[23] = treatment in chronic phase, necropsy day

T1 sequence (P00441 whole entry): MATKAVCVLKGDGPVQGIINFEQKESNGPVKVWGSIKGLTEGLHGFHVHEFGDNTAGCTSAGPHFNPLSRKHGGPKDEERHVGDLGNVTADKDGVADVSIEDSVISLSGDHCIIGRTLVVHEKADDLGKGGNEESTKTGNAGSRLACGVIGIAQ

SMILES: N#C[Se]c1ccc(NC(=O)c2ccc(C(F)(F)F)cc2)cc1 [Compound 26]
- Selectivity index (SI), epimastigotes, SN3 strain [1, 14]: 64
- IC50 ([1]; Trypanosoma cruzi, 48 h + 24 h resazurin, read-out: Activity IC50, epimastigote form, SN3 strain): 2.1 ± 0.3 µM
- selectivity index (SI), SN3 strain, am. forms [2, 15]: 34
- IC50 ([2]; Trypanosoma cruzi, amastigotes in Vero cells, 72 h, read-out: activity IC50, SN3 strain, am. forms): 3.9 ± 0.5 µM
- anti-T. cruzi IgG levels (ELISA), acute phase treatment (T. cruzi Arequipa strain; [16]): lower IgG values than the treated with BZN at the beginning of the treatment
- splenomegaly reduction in comparison with untreated mice, acute phase treatment (T. cruzi Arequipa strain; [16]): 49%
- parasitaemia reactivation after immunosuppression, acute phase treatment (T. cruzi Arequipa strain; 20 mg·kg–1 per day i.p. 5 days from 9 dpi, compared to untreated group): approximately 65%
- parasite-free organs/tissues by PCR, acute phase treatment (T. cruzi Arequipa strain; 20 mg·kg–1 per day i.p. 5 days from 9 dpi, necropsy 145 dpi): 42.9%
- anti-T. cruzi IgG levels (ELISA), chronic phase treatment (T. cruzi Arequipa strain; [17]): similar
- splenomegaly reduction in comparison with untreated mice, chronic phase treatment (T. cruzi Arequipa strain; [17]): 38%
- parasitaemia reactivation after immunosuppression, chronic phase treatment (T. cruzi Arequipa strain; 20 mg·kg–1 per day i.p. 5 days from 100 dpi, compared to untreated group): ~60%
- parasite-free organs/tissues by PCR, chronic phase treatment (T. cruzi Arequipa strain; 20 mg·kg–1 per day i.p. 5 days from 100 dpi, necropsy 145 dpi): 42.9%
- day at which parasitaemia was resolved (T. cruzi Arequipa strain; [18]): 48 dpi
- parasitaemia profile during the acute phase (T. cruzi Arequipa strain; [18]): better activity profile compared to that of BZN
- selectivity index (SI), Tulahuen strain, am. forms [3, 15]: 27
- IC50 ([3]; Trypanosoma cruzi, TULAHUEN, amastigotes in Vero cells, 72 h, read-out: activity IC50, Tulahuen strain, am. forms): 4.9 ± 0.3 µM
- inhibition of nucleic acid levels [4]: 47%
- Selectivity index (SI), epimastigotes, Arequipa strain [5, 14]: 84
- IC50 ([5]; Trypanosoma cruzi, 48 h + 24 h resazurin, read-out: Activity IC50, epimastigote form, Arequipa strain): 1.6 ± 0.3 µM
- IC50 [6]: > 100 µM
- IC50 (Trypanosoma cruzi Fe-SOD): 51.9 µM
- selectivity index (SI), Tulahuen strain, trypom. forms [7, 19]: 46
- IC50 ([7]; Trypanosoma cruzi, TULAHUEN, bloodstream trypomastigotes, 24 h + 4 h resazurin, read-out: activity IC50, Tulahuen strain, trypom. forms): 2.9 ± 0.2 µM
- selectivity index (SI), Arequipa strain, am. forms [8, 15]: 25
- IC50 ([8]; Trypanosoma cruzi, amastigotes in Vero cells, 72 h, read-out: activity IC50, Arequipa strain, am. forms): 5.4 ± 0.7 µM
- selectivity index (SI), Arequipa strain, trypom. forms [9, 19]: 56
- IC50 ([9]; Trypanosoma cruzi, bloodstream trypomastigotes, 24 h + 4 h resazurin, read-out: activity IC50, Arequipa strain, trypom. forms): 2.4 ± 0.3 µM
- CC50 (Vero cells): 134 ± 11.3 µM
- selectivity index (SI), SN3 strain, trypom. forms [10, 19]: 52
- IC50 ([10]; Trypanosoma cruzi, bloodstream trypomastigotes, 24 h + 4 h resazurin, read-out: activity IC50, SN3 strain, trypom. forms): 2.5 ± 0.3 µM
- IC50 [11]: 22.4 µM
- ALP (liver marker) [12, 20]: + (+/-, 10-20% increase/decrease over the range)
- ALT/GPT (liver marker) [12, 20]: ++ (++/--, 20-30% increase/decrease over the range)
- AST/GOT (liver marker) [12, 20]: ++ (++/--, 20-30% increase/decrease over the range)
- CK-MB (heart marker) [12, 20]: ++++ (++++/----, ˃ 40% increase/decrease over the range)
- LDH (heart marker) [12, 20]: + (+/-, 10-20% increase/decrease over the range)
- Total bilirubin (liver marker) [12, 20]: ++ (++/--, 20-30% increase/decrease over the range)
- Urea (kidney marker) [12, 20]: -- (++/--, 20-30% increase/decrease over the range)
- Uric acid (kidney marker) [12, 20]: ---- (++++/----, ˃ 40% increase/decrease over the range)
- ALP (liver marker) [12, 21]: ++ (++/--, 20-30% increase/decrease over the range)
- ALT/GPT (liver marker) [12, 21]: ++ (++/--, 20-30% increase/decrease over the range)
- AST/GOT (liver marker) [12, 21]: = (=, variation ≤ 10%)
- CK-MB (heart marker) [12, 21]: = (=, variation ≤ 10%)
- LDH (heart marker) [12, 21]: = (=, variation ≤ 10%)
- Total bilirubin (liver marker) [12, 21]: + (+/-, 10-20% increase/decrease over the range)
- Urea (kidney marker) [12, 21]: = (=, variation ≤ 10%)
- Uric acid (kidney marker) [12, 21]: = (=, variation ≤ 10%)
- ALP (liver marker) [12, 22]: = (=, variation ≤ 10%)
- ALT/GPT (liver marker) [12, 22]: ++ (++/--, 20-30% increase/decrease over the range)
- AST/GOT (liver marker) [12, 22]: +++ (+++/---, 30-40% increase/decrease over the range)
- CK-MB (heart marker) [12, 22]: + (+/-, 10-20% increase/decrease over the range)
- LDH (heart marker) [12, 22]: = (=, variation ≤ 10%)
- Total bilirubin (liver marker) [12, 22]: +++ (+++/---, 30-40% increase/decrease over the range)
- Urea (kidney marker) [12, 22]: --- (+++/---, 30-40% increase/decrease over the range)
- Uric acid (kidney marker) [12, 22]: - (+/-, 10-20% increase/decrease over the range)
- ALP (liver marker) [12, 23]: = (=, variation ≤ 10%)
- ALT/GPT (liver marker) [12, 23]: = (=, variation ≤ 10%)
- AST/GOT (liver marker) [12, 23]: = (=, variation ≤ 10%)
- CK-MB (heart marker) [12, 23]: + (+/-, 10-20% increase/decrease over the range)
- LDH (heart marker) [12, 23]: = (=, variation ≤ 10%)
- Total bilirubin (liver marker) [12, 23]: ++ (++/--, 20-30% increase/decrease over the range)
- Urea (kidney marker) [12, 23]: = (=, variation ≤ 10%)
- Uric acid (kidney marker) [12, 23]: - (+/-, 10-20% increase/decrease over the range)
- Selectivity index (SI), epimastigotes, Tulahuen strain [13, 14]: 52
- IC50 ([13]; Trypanosoma cruzi, TULAHUEN, 48 h + 24 h resazurin, read-out: Activity IC50, epimastigote form, Tulahuen strain): 2.6 ± 0.4 µM
